Results published in patent publication US20120321647A1, “STRUCTURED RNA MOTIFS AND COMPOUNDS AND METHODS FOR THEIR USE” (YALE UNIVERSITY, priority 2010, published 2012).
Where “and” joins values, the source holds several entries; their conditions need not be identical. Equal entries are not always repeated. Where two headings read alike, the source gives them in different places. Peptide text beside a SMILES is read from it.

Assays:
[1] = tested on: second representative of the glnA motif from a marine metagenomic sequence; test: In-line probing of a second glnA motif representative; type: binding; conditions: for binding by the RNA: at 1 mM (data not shown)
Text: (§1) RNAs were 5′-^32P radiolabeled and subjected to in-line probing analyses, which have been described in detail previously (Soukup et al. Relationship between internucleotide linkage geometry and the stability of RNA. RNA 1999; 5:1308-1325; Regulski E E, Breaker R R. In-line probing analysis of riboswitches. Methods Mol Biol 2008; 419:53-67). Briefly, 5′ triphosphates were removed from the RNAs using alkaline phosphatase (Roche) according to the manufacturer's protocol. The dephosphorylated RNAs were 5′-^32P radiolabeled by incubation with [γ-^32P] ATP and T4 polynucleotide kinase (New England Biolabs), following the manufacturer's directions. Denaturing PAGE (6%) was subsequently employed to purify the RNAs as described above. The radiolabeled RNAs were then incubated at 23° C. in a solution containing 75 mM Tris-HCl (pH 8.3 at 23° C.), 20 mM MgCl2, 100 mM KCl, and various different potential ligands (see results section for full list) at concentrations ranging from 1 μM to 10 mM in most cases. When RNAs were subjected to in-line probing with 100 mM L-glutamate, the amino acid replaced the Tris-HCl as the buffering agent. HCl and NaOH were used to adjust this modified in-line probing solution to pH 8.3.
(§2) After incubating for approximately 40 hours, the products of in-line probing reactions were separated by denaturing 10% PAGE. The gels were then dried and imaged using a Storm 820 PhosphorImager (GE Healthcare). The relative intensities of the various degradation products were quantified using SAFA v1.1 software (Das et al. SAFA: Semi-automated footprinting analysis software for high-throughput quantification of nucleic acid footprinting experiments. RNA 2005; 11:344-354). The bands which modulated the most intensely were used to make KD estimates.

67 glnA RNA = test: In-line probing of 67 glnA RNA; type: binding, Synechococcus elongatus; conditions: for binding by the 67 glnA aptamer: concentrations as high as 10 mM
Text: as §1
as §2, with “estimates. In the cases where the concentrations of ligand used were insufficiently high to saturate RNA binding, the data was normalized to KD values that best explained the data assuming a standard one-to-one interaction.” for “estimates.”

83 DP RNA = test: In-line probing of 83 DP RNA (Downstream-peptide motif); type: binding, Synechococcus sp. CC9902; conditions: for binding by the Downstream-peptide glutamine aptamer: stated in the discussion for both aptamer subtypes, concentration not given at place; for Kd: 1-to-1 interaction, read-out: apparent KD
Text: as §1, §2

construct M3 = test: In-line probing of 67 glnA construct M3 (compensatory mutations); type: binding, Synechococcus elongatus
Protocol: (§3) Pairs of oligonucleotides were used in primer extension reactions to make full-length double-stranded DNA (dsDNA) products to use as templates for in vitro transcription reactions. Primers 1 and 2 were used for 67 glnA, 2 and 3 for Ml, 4 and 5 for M3, 1 and 6 for M2, 1 and 7 for M4, 8 and 9 for 83 DP, 8 and 10 for M5, and 8 and 11 for M6. A 100 μl solution containing 300 pmoles of each primer, 50 mM Tris-HCl (pH 8.3 at 23° C.), 75 mM KCl, 3 mM MgCl2, […] dithiothreitol (DTT), 1 mM of each of the four deoxynucleoside triphosphates (dNTPs), and 8 U/μl of SuperScript II Reverse Transcriptase (Invitrogen) was heated for 2 hours at 42° C. The full length dsDNA was then purified using the QIAquick PCR Purification Kit (QIAgen) following the manufacturer's protocol and was eluted in a volume of 50 […]
as §2, with “The gels were then dried and imaged using a Storm 820 PhosphorImager (GE Healthcare).” left out, “The bands which modulated the most intensely were used to make KD estimates.” left out

[2] = tested on: 67 glnA mutant RNA construct M2; test: In-line probing of 67 glnA mutant M2 (disruptive mutations); type: binding, Synechococcus elongatus; conditions: two disruptive mutations in P3 stem
Protocol: as §3
as §2, with “The gels were then dried and imaged using a Storm 820 PhosphorImager (GE Healthcare).” left out, “The bands which modulated the most intensely were used to make KD estimates.” left out

[3] = tested on: 67 glnA mutant RNA construct M1; test: In-line probing of 67 glnA mutant M1 (disruptive mutations); type: binding, Synechococcus elongatus; conditions: two disruptive mutations in P2 stem
Protocol: as §3
as §2, with “The gels were then dried and imaged using a Storm 820 PhosphorImager (GE Healthcare).” left out, “The bands which modulated the most intensely were used to make KD estimates.” left out

M5 RNA = test: In-line probing of mutant 83 DP RNA M5 (disrupted pseudoknot); type: binding, Synechococcus sp. CC9902; conditions: two disruptive mutations in the pseudoknot
Protocol: as §3
as §2, with “The gels were then dried and imaged using a Storm 820 PhosphorImager (GE Healthcare).” left out, “The bands which modulated the most intensely were used to make KD estimates.” left out

construct M4 = test: In-line probing of 67 glnA construct M4 (compensatory mutations); type: binding, Synechococcus elongatus
Protocol: as §3
as §2, with “The gels were then dried and imaged using a Storm 820 PhosphorImager (GE Healthcare).” left out, “The bands which modulated the most intensely were used to make KD estimates.” left out

pfl RNA [4] = test: In-line probing experiments with a pfl RNA; type: binding, Clostridium acetobutylicum ATCC 824; conditions: 1 mM except where noted
Protocol: Some riboswitches were tested for metabolite binding using in-line probing experiments (Regulski et al. In-line probing analysis of riboswitches. Methods Mol Biol 2008, 419:53-67). RNAs tested were transcribed in vitro from a DNA template using RNA polymerase T7. In the experiments described below, no modulation in gel patterns was observed that would indicate metabolite binding.
Experiments were performed with the following RNA encoded by Clostridium acetobutylicum ATCC 824:
The following metabolites were tested at 1 mM except where noted: AICAR riboside, AICAR ribotide, SAICAR, GAR, pyruvate, guanine (100 μM), hypoxanthine (40 μM), IMP, formate, THF, dihydrofolate, 5-formyl-THF, 10-formyl-THF, methylene-THF, methenyl-THF, methyl-THF, SAICAR, glutamate, glutamine, glycine, serine, aspartate, dUMP, homocysteine, SAM, AICA, CAIR, CoA, acetyl-CoA, alanine, NAD, NADH, NADP, NADPH, dCMP, histidine, D-ribose 5′-phosphate, adenine, D-ribose, NADH, SAICAR, CAIR, glycine, PRPR, ppGpp, cAMP, HMP, ATP (600 μM), CTP (600 μM), GTP (600 μM), UTP (600 μM), AMP, ADP, GMP, GDP, UMP, UDP, uridine, and tryptophan.

pfl RNA [5] = test: RNase protection assay (RNase T1 and V1) with pfl RNA; type: binding, Clostridium acetobutylicum ATCC 824; conditions: shorter incubation time than in-line probing
Protocol: Due to the instability of PRPP, it was also tested in an RNase protection assay with RNase T1 and V1. The use of an RNase permits a shorter incubation time than used for in-line probing.

[6] = tested on: SAM-Chlorobi RNA (four RNAs with different 3′ ends); test: In-line probing experiments with SAM-Chlorobi RNA; type: binding, Chlorobium tepidum TLS; conditions: 1 mM
Protocol: Some riboswitches were tested for metabolite binding using in-line probing experiments (Regulski et al. In-line probing analysis of riboswitches. Methods Mol Biol 2008, 419:53-67). RNAs tested were transcribed in vitro from a DNA template using RNA polymerase T7. In the experiments described below, no modulation in gel patterns was observed that would indicate metabolite binding. […] Experiments were performed on the following four RNAs, encoded by Chlorobium tepidum TLS, which have different 3′ ends: Lowercase letters represent G nucleotides that were added to improve transcription yield. The following metabolites were tested at 1 mM: SAM, SAH, methionine, and homocysteine.

SK209-52 RNA = test: In-line probing of SK209-52 RNA (SAM/SAH motif); type: binding, Roseobacter sp. SK209-2-6; conditions: SAM samples may contain breakdown product SAH, read-out: apparent dissociation constant (KD)
Protocol: RNA constructs were prepared by in vitro RNA transcription RNA using T7 RNA polymerase and the appropriate DNA templates that were created by overlap extension of synthetic DNA oligonucleotides using SuperScript II reverse transcriptase (Invitrogen) as instructed by the manufacturer. RNA transcripts were purified using denaturing (8 M urea) polyacrylamide gel electrophoresis (PAGE). RNAs were eluted from the gel, dephosphorylated using alkaline phosphatase and 5′ radiolabeled with [γ-32P] using methods reported previously (Wang et al. Riboswitches that sense S-adenosylhomocysteine and activate genes involved in coenzyme recycling. Mol Cell 2008, 29:691-702). 5′ 32P-labeled fragments resulting from in-line probing reactions were subjected to denaturing PAGE, imaged and analyzed as previously described (Wang et al. Riboswitches that sense S-adenosylhomocysteine and activate genes involved in coenzyme recycling. Mol Cell 2008, 29:691-702).

SMILES: O=C(O)CCC(=O)C(=O)O [2-oxoglutarate]
- binding by the RNA [1]: rejected

SMILES: NC(=O)CCCC(=O)O [5-amino-5-oxopentanoic acid]
- binding by the 67 glnA aptamer (67 glnA RNA; in-line probing): rejected
- binding by the Downstream-peptide glutamine aptamer (83 DP RNA): loss of binding

SMILES: CC(=O)CC[C@H](N)C(=O)O [(S)-2-amino-5-oxo-hexanoic acid]
- binding by the 67 glnA aptamer (67 glnA RNA; in-line probing): rejected
- binding by the Downstream-peptide glutamine aptamer (83 DP RNA): reject

SMILES: C[C@H](N)C(=O)N[C@@H](CCC(N)=O)C(=O)O [Ala-Gln] (H-Ala-Gln-OH)
- binding by the 67 glnA aptamer (67 glnA RNA; in-line probing): rejected
- binding by the Downstream-peptide glutamine aptamer (83 DP RNA): neither Ala-Gln nor L-glutamine t-butyl ester are bound

SMILES: NC(=O)CC[C@@H](N)C(=O)O [D-glutamine]
- affinity relative to its more common isomer (L-glutamine) (67 glnA RNA; in-line probing): approximately 1/10
- fold tighter binding of L-glutamine compared to D-glutamine (67 glnA RNA; in-line probing): 10 fold
- binding to 83 DP RNA (83 DP RNA; concentrations up to 10 mM): no binding was detected

SMILES: NC(=O)C[C@H](N)C(=O)O [L-asparagine]
- binding by the 67 glnA aptamer (67 glnA RNA; in-line probing): rejected

SMILES: CC(C)(C)OC(=O)[C@@H](N)CCC(N)=O [L-glutamine t-butyl ester]
- binding by the 67 glnA aptamer (67 glnA RNA; in-line probing): rejected
- binding by the Downstream-peptide glutamine aptamer (83 DP RNA): neither Ala-Gln nor L-glutamine t-butyl ester are bound

SMILES: NC(=O)CC[C@H](N)C(=O)O [L-glutamine]
- structural modulation in response to glutamine addition (construct M3): regain structural modulation
- structural modulation upon addition of glutamine [2]: no modulation
- structural modulation upon addition of glutamine [3]: no modulation
- Kd [1]: ~150 µM
- pattern of RNA cleavage products (67 glnA RNA; 1 mM glutamine added to in-line probing assay containing 100 mM glutamate): produced the pattern of RNA cleavage products expected for glutamine binding
- Kd (67 glnA RNA; curve expected for a 1-to-1 RNA-ligand interaction (FIG. 30C), read-out: KD): 575 µM
- Kd (67 glnA RNA; in-line probing, one-to-one interaction, read-out: apparent dissociation constant (KD)): ~575 µM
- Kd (83 DP RNA; listed as glutamine): ~5 mM
- Kd (83 DP RNA): 5 mM
- binding to glutamine (M5 RNA): does not bind
- structural modulation in response to glutamine addition (construct M4): regain structural modulation

SMILES: NC(=O)CCC[C@H](N)C(=O)O [L-homoglutamine]
- binding by the 67 glnA aptamer (67 glnA RNA; in-line probing): rejected
- binding by the Downstream-peptide glutamine aptamer (83 DP RNA): reject

SMILES: NCCCC[C@H](N)C(=O)O [L-lysine]
- binding by the RNA [1]: rejected

SMILES: CCNC(=O)CC[C@H](N)C(=O)O [L-theanine]
- binding by the 67 glnA aptamer (67 glnA RNA; in-line probing): rejected

SMILES: NC(=O)CC[C@H](N)CC(=O)O [L-β-homo glutamine]
- binding by the 67 glnA aptamer (67 glnA RNA; in-line probing): rejected

SMILES: CC(=O)OC[C@H](N)C(=O)O [O-acetyl-L-serine]
- binding by the 67 glnA aptamer (67 glnA RNA; in-line probing): rejected

SMILES: O=P(O)(O)OC[C@H]1O[C@H](OP(=O)(O)OP(=O)(O)O)[C@H](O)[C@@H]1O [PRPP]
- modulation in gel patterns that would indicate metabolite binding (pfl RNA [4]): did not reveal evidence of binding
- change in degradation patterns (pfl RNA [5]): no change in degradation patterns was detected

SMILES: Nc1ncnc2c1ncn2[C@@H]1O[C@H](CSCC[C@H](N)C(=O)O)[C@@H](O)[C@H]1O [SAH, S-adenosylhomocysteine]
- modulation in gel patterns that would indicate metabolite binding [6]: did not reveal binding
- Kd (SK209-52 RNA): ~4.3 µM

SMILES: C[S+](CC[C@H](N)C(=O)[O-])C[C@H]1O[C@@H](n2cnc3c(N)ncnc32)[C@H](O)[C@@H]1O (stereo partly shown) [SAM, S-adenosylmethionine]
- modulation in gel patterns that would indicate metabolite binding [6]: did not reveal binding
- Kd (SK209-52 RNA): 8.6 µM and ~8.6 µM

SMILES: N=C(N)NCCCCN [agmatine]
- binding by the RNA [1]: rejected

SMILES: N[C@@H](CCC(=O)O)C(=O)O [glutamate]
- binding by the RNA [1]: rejected
- structural modulation (67 glnA RNA; in-line probing, 100 mM glutamate as the primary buffering agent): no structural modulation was observed
- binding by the Downstream-peptide glutamine aptamer (83 DP RNA): reject

SMILES: O=C(O)CCCC(=O)O [glutaric acid]
- binding by the RNA [1]: rejected

SMILES: NCCCCN [putrescine]
- binding by the RNA [1]: rejected

SMILES: Cc1ncc(COP(=O)(O)O)c(C=O)c1O [pyridoxal phosphate]
- binding by the RNA [1]: rejected

SMILES: O=C(O)CCC(=O)O [succinate]
- binding by the RNA [1]: rejected

SMILES: O=CCCC(=O)O [succinic semialdehyde]
- binding by the RNA [1]: rejected

SMILES: NCCCC(=O)O [γ-aminobutyric acid]
- binding by the RNA [1]: rejected
